Experimental data taken from ChEMBL document CHEMBL1201862, “PubChem BioAssay data set” (2004).
The source made the active and inactive calls.

Tests used:
[1] = NIH-3T3 fibroblast cytotoxicity, dose response, cytotoxicity control, cell-based, fluorescence, Alamar Blue, secondary assay (AID 2327); type: functional;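 note: NIH-3T3 mouse fibroblasts cultured with fluconazole at 8 µg/mL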
[2] = fluconazole-exposed Candida albicans growth modulators – fluorescence, retest, confirmation (AID 2467); type: functional, cell-based
[3] = target: T1, Serine/threonine-protein phosphatase (Candida dubliniensis (strain CD36 / CBS 7987 / NCPF 3949 / NRRLY-17841) (Yeast), UniProt B9W6M3); experiment: blockers of CaCl2-induced CDRE-lacZ signaling – S. cerevisiae, luminescence, secondary, dose response (AID 2388); type: functional, cell-based;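 note: yeast reporter cells carrying a calcineurin-responsive lacZ construct stimulated with calcium chloride; luminescent beta-galactosidase reporter signal in whole cells rather than isolated phosphatase activity; potency for inhibition where a drop in reporter signal means calcineurin blockade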
T1 sequence (B9W6M3 whole entry): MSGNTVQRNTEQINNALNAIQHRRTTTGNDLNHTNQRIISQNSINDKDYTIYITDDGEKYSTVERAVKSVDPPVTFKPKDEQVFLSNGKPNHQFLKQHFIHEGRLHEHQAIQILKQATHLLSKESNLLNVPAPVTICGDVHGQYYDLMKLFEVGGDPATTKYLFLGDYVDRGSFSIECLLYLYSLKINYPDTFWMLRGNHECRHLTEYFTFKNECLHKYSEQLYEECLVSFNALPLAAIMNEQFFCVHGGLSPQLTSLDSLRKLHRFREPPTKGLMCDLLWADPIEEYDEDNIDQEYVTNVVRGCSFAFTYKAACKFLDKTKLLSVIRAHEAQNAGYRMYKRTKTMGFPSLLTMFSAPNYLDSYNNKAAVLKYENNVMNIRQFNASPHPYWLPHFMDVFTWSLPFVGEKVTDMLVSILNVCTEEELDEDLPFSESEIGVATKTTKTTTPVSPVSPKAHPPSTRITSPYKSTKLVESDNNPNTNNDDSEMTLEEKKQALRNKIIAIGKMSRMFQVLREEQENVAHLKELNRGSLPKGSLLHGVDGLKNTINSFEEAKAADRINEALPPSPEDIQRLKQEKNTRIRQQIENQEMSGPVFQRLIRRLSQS

[4] = target: ATP-dependent molecular chaperone HSP82 (Candida albicans (strain WO-1) (Yeast), UniProt C4YTQ8); experiment: steroid-induced GRE reporter decrease in yeast – S. cerevisiae, luminescence, Hsp90 inhibitor project, dose response (AID 2400); type: functional, cell-based;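 note: beta-galactosidase luminescence from glucocorticoid response element reporter as proxy for Hsp90 function; inhibitor potency where signal loss means Hsp90 inhibition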
[5] = target: Peroxisome proliferator-activated receptor gamma/Nuclear receptor coactivator 1 (Homo sapiens, UniProt P37231); experiment: (§1) TR-FRET dose response biochemical High Throughput Screening assay for agonists of the steroid receptor coactivator 1 (SRC-1) recruitment by the peroxisome proliferator-activated receptor gamma (PPAR gamma): non-selective agonists. [Related pubchem assays (depositor defined):AID1300, AID1808, AID504735, AID631]; type: protein assay
[6] = target: Peroxisome proliferator-activated receptor gamma/Nuclear receptor coactivator 3 (Homo sapiens, UniProt P37231); experiment: as §1, with “3 (SRC-3)” for “1 (SRC-1)”, “assays: 1301 (Confirmation screen.), 1048 (Primary screen.)]” for “assays (depositor defined):AID1300, AID1808, AID504735, AID631]”; type: functional
[7] = target: Peroxisome proliferator-activated receptor gamma/Nuclear receptor coactivator 2 (Homo sapiens, UniProt P37231); experiment: TR-FRET dose response biochemical High Throughput Screening assay for agonists of the steroid receptor coactivator 2 (SRC-2) recruitment by the peroxisome proliferator-activated receptor gamma (PPAR gamma): non-selective agonists. [Related pubchem assays: 1297, 1032 ]; type: functional
[8] = target: T2, Heat shock factor protein 1 (Mus musculus, UniProt P38532); experiment: decrease of HSF1-responsive luciferase luminescence – cell-based, NIH3T3, dose retest, confirmation (AID 2382); type: functional;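 note: NIH3T3 fibroblasts with HSF1-driven luciferase reporter stressed by proteasome inhibitor MG132; luminescence from HSF1-driven luciferase expression after 8 hours of MG132 stress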
T2 sequence (P38532 whole entry): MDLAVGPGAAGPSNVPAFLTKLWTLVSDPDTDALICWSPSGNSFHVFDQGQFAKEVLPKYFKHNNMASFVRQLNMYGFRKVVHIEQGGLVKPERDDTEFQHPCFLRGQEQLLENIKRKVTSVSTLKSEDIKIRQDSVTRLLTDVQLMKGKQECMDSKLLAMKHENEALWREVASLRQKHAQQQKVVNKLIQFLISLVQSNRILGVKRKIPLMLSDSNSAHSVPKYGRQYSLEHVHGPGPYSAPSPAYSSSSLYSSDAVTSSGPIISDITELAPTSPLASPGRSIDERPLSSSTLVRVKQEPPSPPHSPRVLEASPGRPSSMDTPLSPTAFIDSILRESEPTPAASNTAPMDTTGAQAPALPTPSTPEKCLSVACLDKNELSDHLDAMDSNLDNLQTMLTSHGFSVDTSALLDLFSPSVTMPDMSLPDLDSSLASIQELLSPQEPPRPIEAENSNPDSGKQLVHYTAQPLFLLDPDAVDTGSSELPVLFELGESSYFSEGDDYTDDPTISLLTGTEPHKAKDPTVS

Bcl-2-related protein A1 = target: T3, Bcl-2-related protein A1 (Mus musculus, UniProt Q07440); type: functional;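 note: confirmatory dose–response counterscreen on Bfl-1, used to check hits from a UBC13 polyubiquitin inhibitor campaign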
T3 sequence (Q07440 whole entry): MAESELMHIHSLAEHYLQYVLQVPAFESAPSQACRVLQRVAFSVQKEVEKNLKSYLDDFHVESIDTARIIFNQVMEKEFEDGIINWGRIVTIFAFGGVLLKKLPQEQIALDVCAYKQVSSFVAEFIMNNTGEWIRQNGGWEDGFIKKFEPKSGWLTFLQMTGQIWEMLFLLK

[9] = target: T4, Ubiquitin-conjugating enzyme E2 N (Homo sapiens, UniProt P61088); type: functional
T4 sequence (P61088 whole entry): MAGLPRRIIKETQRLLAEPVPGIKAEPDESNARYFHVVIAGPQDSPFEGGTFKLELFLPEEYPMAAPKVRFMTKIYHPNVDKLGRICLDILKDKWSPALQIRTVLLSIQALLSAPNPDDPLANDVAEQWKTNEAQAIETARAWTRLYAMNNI

[10] = target: T4, Ubiquitin-conjugating enzyme E2 N; type: functional; remark: listed apart in the source
[11] = target: T5, Short transient receptor potential channel 4 (Mus musculus, UniProt Q9QUQ5); experiment: calcium entry via TRPC4 opening agents – cell-based, HEK293 TRPC4/mu-opioid, Fluo-4 calcium, dose response (AID 434937); type: functional
T5 sequence (Q9QUQ5 whole entry): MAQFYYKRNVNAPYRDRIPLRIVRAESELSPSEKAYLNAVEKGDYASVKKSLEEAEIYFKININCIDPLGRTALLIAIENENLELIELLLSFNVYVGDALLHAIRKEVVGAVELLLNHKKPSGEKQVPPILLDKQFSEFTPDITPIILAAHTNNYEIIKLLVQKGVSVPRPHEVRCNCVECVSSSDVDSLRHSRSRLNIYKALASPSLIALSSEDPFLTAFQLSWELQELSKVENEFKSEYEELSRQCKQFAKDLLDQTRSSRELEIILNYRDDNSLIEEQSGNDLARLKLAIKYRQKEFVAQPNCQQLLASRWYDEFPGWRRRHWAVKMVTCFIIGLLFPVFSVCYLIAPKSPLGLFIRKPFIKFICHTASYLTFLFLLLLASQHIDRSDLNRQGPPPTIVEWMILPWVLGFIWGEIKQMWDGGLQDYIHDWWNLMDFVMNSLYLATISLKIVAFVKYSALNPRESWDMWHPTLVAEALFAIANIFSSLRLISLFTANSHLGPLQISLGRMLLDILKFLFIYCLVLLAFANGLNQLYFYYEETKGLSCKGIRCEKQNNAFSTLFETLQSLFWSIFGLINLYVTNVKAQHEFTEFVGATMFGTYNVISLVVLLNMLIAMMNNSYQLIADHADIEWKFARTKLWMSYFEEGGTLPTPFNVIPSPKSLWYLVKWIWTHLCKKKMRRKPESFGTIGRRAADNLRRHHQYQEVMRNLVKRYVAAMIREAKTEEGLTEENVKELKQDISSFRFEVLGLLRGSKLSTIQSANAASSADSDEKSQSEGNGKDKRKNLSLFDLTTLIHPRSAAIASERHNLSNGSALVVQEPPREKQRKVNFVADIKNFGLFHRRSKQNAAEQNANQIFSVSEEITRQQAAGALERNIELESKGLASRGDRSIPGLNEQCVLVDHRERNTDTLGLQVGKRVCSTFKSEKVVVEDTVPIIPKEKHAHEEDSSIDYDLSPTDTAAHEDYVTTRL

INS1 = experiment: INS-1E survival protection against cytokine death – cell-based, luminescence, retest, dose response (AID 449756); type: functional; settings: Rattus norvegicus;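 note: cell death triggered by IL-1 beta plus TNF-alpha plus IFN-gamma mixture; protective hits raise ATP signal compared with cytokine alone wells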
[12] = target: T6, Mannose-6-phosphate isomerase (Homo sapiens, UniProt P34949); experiment: phosphomannose isomerase inhibition – biochemical, fluorescence intensity, confirmation (AID 1535)
T6 sequence (P34949 whole entry): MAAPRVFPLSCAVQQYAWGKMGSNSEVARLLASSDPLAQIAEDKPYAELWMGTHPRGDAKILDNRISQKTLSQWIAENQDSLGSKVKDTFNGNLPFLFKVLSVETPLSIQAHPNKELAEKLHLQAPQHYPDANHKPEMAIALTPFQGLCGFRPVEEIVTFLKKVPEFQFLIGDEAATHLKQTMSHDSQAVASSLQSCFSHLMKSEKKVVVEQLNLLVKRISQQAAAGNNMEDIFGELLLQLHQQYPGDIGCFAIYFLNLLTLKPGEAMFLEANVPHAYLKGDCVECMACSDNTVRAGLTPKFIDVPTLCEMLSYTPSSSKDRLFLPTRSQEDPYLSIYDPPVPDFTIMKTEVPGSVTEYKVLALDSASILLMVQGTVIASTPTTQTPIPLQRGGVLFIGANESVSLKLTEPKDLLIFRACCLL

Phosphomannomutase 2 = target: T7, Phosphomannomutase 2 (Homo sapiens, UniProt O15305); experiment: Counter screen SAR assay for PMM2 inhibitors via a fluorescence intensity assay. [Related pubchem assays (depositor defined):AID1545, AID1574]
T7 sequence (O15305 whole entry): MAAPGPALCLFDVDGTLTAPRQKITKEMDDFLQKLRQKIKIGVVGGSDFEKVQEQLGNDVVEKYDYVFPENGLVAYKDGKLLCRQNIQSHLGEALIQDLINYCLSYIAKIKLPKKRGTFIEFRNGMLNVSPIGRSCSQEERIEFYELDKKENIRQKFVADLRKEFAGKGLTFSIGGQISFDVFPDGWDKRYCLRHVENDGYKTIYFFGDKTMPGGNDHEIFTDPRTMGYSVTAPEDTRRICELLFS

Sequence of Peroxisome proliferator-activated receptor gamma/Nuclear receptor coactivator 3 (P37231 whole entry): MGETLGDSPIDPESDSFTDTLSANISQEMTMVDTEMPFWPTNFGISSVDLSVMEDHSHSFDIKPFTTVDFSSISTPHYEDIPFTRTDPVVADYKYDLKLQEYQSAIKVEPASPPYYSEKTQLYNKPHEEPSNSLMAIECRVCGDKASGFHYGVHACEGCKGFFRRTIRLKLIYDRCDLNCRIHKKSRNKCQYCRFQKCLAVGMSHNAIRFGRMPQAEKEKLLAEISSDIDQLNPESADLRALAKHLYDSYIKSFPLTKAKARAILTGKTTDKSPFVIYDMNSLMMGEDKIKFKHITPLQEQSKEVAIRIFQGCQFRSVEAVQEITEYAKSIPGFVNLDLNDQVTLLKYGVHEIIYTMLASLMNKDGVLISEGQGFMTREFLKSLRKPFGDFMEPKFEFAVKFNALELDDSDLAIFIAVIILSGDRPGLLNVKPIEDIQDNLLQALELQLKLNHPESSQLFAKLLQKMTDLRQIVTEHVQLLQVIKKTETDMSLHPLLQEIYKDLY
Sequence of Peroxisome proliferator-activated receptor gamma/Nuclear receptor coactivator 3 (Q9Y6Q9 whole entry, further chain): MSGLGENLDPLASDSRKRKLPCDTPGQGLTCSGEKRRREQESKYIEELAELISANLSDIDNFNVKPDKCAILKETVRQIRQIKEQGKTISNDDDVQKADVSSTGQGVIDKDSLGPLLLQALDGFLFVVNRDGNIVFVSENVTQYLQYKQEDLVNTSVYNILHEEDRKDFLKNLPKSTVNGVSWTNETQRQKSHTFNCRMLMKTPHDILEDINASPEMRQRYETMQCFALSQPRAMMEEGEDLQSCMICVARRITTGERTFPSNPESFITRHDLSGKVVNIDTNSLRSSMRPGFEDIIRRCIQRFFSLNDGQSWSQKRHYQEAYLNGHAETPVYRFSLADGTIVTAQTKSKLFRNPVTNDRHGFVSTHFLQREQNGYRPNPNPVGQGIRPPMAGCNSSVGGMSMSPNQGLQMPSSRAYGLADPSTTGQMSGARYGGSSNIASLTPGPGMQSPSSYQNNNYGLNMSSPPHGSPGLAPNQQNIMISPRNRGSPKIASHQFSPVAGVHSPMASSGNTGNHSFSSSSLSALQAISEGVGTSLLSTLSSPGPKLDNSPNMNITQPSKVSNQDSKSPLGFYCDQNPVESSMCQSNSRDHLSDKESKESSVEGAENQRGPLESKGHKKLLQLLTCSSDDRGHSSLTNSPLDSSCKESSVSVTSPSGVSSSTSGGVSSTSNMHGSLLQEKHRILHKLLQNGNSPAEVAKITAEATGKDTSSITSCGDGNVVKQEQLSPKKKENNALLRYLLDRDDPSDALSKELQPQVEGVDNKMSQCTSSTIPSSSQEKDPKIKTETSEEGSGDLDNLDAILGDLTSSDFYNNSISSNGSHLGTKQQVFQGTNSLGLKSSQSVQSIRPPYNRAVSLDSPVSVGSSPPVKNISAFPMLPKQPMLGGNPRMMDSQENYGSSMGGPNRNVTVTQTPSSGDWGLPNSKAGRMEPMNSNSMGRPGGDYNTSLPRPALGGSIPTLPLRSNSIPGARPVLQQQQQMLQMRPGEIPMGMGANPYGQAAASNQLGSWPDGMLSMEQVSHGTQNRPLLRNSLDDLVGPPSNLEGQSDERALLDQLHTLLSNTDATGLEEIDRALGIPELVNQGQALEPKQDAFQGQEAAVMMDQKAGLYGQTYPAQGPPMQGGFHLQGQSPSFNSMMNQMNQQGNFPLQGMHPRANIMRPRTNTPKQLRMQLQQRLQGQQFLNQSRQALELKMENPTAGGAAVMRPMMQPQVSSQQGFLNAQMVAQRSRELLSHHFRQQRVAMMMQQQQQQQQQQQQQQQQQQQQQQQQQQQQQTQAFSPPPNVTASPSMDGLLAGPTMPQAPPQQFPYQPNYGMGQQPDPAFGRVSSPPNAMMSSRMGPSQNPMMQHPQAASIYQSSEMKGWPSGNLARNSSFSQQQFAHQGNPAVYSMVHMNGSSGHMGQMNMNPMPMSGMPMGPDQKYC
Sequence of Peroxisome proliferator-activated receptor gamma/Nuclear receptor coactivator 1 (P37231 whole entry): as the sequence (P37231 whole entry) above
Sequence of Peroxisome proliferator-activated receptor gamma/Nuclear receptor coactivator 1 (Q15788 whole entry, further chain): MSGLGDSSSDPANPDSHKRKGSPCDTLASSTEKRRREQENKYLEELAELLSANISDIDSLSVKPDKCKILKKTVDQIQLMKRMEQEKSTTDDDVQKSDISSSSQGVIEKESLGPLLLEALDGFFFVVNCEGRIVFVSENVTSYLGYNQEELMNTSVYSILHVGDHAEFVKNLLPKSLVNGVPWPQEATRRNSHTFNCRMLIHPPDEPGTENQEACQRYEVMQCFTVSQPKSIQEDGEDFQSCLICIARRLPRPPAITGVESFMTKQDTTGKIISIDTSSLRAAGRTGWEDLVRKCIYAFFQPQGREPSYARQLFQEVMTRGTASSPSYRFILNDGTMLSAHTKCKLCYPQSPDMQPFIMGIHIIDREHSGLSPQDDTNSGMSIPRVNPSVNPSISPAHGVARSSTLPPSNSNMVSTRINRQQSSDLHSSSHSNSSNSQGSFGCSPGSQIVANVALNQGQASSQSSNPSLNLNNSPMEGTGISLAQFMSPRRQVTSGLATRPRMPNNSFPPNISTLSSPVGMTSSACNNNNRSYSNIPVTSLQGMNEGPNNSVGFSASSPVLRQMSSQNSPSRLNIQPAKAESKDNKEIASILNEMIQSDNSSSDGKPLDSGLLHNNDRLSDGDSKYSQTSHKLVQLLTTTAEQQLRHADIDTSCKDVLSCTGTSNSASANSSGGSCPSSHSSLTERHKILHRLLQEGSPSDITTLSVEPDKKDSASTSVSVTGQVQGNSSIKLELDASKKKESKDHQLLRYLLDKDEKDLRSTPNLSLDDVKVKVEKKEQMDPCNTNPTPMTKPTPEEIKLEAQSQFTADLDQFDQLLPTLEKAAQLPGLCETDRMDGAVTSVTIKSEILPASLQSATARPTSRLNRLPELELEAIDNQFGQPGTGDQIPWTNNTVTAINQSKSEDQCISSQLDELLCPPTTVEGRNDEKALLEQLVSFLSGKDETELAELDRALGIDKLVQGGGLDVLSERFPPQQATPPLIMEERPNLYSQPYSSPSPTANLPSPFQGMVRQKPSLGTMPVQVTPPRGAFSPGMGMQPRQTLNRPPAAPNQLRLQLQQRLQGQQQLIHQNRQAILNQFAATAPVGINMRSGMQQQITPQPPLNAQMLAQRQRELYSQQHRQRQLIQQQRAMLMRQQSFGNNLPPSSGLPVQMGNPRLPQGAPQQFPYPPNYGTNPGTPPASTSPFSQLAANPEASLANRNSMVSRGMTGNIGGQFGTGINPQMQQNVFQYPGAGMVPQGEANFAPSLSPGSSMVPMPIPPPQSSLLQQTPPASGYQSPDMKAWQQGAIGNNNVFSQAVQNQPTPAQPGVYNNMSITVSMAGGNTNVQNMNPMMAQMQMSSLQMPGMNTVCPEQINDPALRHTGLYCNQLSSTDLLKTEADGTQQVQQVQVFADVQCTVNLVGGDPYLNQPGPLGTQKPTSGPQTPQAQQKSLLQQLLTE
Sequence of ATP-dependent molecular chaperone HSP82 (C4YTQ8 whole entry): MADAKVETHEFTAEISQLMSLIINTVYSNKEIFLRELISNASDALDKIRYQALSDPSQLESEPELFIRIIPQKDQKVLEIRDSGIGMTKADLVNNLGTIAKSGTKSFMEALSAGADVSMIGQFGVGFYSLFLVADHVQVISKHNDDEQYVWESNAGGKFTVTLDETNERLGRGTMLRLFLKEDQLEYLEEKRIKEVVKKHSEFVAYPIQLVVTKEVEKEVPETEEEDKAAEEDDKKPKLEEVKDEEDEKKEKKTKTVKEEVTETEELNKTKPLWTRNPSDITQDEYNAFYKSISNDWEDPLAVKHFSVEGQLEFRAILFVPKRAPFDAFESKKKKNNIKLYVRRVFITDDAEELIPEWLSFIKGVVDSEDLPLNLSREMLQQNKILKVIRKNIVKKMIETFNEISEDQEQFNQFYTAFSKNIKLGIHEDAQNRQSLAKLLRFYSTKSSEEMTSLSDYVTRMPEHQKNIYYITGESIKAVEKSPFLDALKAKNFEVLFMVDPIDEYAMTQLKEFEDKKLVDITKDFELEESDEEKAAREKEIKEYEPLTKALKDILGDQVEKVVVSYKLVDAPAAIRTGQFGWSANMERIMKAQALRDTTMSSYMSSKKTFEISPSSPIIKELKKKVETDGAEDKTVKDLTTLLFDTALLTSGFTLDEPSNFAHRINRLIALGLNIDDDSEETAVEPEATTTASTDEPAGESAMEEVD

| Structure (SMILES) | EC50 [5] | EC50 [6] | EC50 [7] | IC50 (Bcl-2-related protein A1) | IC50 [9] | IC50 [10] | further results |
| --- | --- | --- | --- | --- | --- | --- | --- |
| O=[N+]([O-])c1ccc(O)c(P(=O)(c2ccccc2)c2ccccc2)c1 |  |  |  |  |  |  | EC50 [1]: > 150 µM (inactive); EC50 [2]: 0.698 µM (active); EC50 [3]: > 180 µM (inactive); EC50 [4]: > 150 µM (inactive) |
| Fc1ccc(-c2nnsc2Sc2ccccn2)cc1 | 8.31 µM (active) | 16.1 µM (not active) | 11.8 µM (not active) |  |  |  |  |
| O=C(NCC1CCN(Cc2cccc(Cl)c2)CC1)C1CCCN(c2ncnc3c2nc2n3CCCCC2)C1 (stereo not given) |  |  |  | > 20 µM (inactive) | 3.87 µM (active) | 1.89 µM (active) |  |
| CN(C)CCCN(C(=O)c1ccc(S(=O)(=O)N(C)Cc2ccccc2)cc1)c1nc2cc3c(cc2s1)OCO3 |  |  |  | > 20 µM (inactive) | 11.5 µM (active) | 5.54 µM (active) | EC50 [11]: 9.44 µM (active); AC50 (INS1): > 120 µM (inactive) |
| Cc1ccncc1/N=c1\ssnc1Cl |  |  |  |  |  |  | IC50 [12]: 34 µM (active); IC50 (Phosphomannomutase 2): > 100 µM (inactive) |

Now from value to compound, other results behind:

| EC50 [5] | EC50 [6] | EC50 [7] | IC50 (Bcl-2-related protein A1) | IC50 [9] | IC50 [10] | Structure (SMILES) | further results |
| --- | --- | --- | --- | --- | --- | --- | --- |
| 2.28 µM (active) | 21.7 µM (not active) | 2.47 µM (active) |  |  |  | CC(C)OC(=O)CNc1nnc(S)nc1O |  |
|  |  |  | > 20 µM (inactive) | 8.3 µM (active) | 10.2 µM (active) | CCCC(C(=O)NC(C)(C)C)N(C(=O)c1snc(C(N)=O)c1N)c1ccc2c(c1)OCCO2 (stereo not given) | EC50 [8]: 1.58 µM (active) |
| 27.6 µM (inactive) | > 79.4 µM (not active) | > 26.5 µM (not active) |  |  |  | NC(=O)CSc1ncnc2c1oc1ccccc12 |  |
| > 79.4 µM (inactive) | > 79.4 µM (not active) | 237 µM (not active) |  |  |  | CCSc1nnc(-c2ccccc2SC)o1 |  |
